The values below come from ChEMBL document CHEMBL3045439, “Isoforms of the heteropteran Nezara viridula ecdysone receptor: protein characterisation, RH5992 insecticide binding and homology modelling” (Pest Manag Sci, 2011).

In assay [1] the target is T1, Ecdysone receptor (Nezara viridula, UniProt E5L6Y0+E5L6Y1).
T1 sequence (E5L6Y1 whole entry): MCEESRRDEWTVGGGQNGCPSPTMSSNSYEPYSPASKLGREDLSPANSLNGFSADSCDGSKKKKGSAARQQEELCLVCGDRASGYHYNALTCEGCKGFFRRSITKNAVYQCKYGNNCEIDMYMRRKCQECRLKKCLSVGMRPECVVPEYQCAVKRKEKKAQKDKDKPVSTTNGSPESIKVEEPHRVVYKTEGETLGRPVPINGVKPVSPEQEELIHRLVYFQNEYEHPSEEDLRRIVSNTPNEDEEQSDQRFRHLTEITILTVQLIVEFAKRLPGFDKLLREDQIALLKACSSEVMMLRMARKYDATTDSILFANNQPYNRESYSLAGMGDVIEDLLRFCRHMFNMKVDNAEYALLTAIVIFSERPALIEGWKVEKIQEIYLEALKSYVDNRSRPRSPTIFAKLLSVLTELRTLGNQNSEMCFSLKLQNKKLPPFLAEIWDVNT
T1 sequence (E5L6Y0 whole entry): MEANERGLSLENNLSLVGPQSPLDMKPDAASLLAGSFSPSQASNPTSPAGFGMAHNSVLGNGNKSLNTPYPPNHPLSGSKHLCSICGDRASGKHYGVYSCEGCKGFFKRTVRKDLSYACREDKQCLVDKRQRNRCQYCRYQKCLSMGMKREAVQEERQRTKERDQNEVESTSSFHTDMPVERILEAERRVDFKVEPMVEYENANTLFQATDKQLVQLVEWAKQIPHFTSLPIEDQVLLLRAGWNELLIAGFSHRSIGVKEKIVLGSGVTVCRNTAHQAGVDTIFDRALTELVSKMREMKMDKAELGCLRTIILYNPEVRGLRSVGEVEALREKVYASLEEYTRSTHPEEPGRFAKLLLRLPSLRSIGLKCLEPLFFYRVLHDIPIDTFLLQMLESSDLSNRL
Nature of the assay: Displacement of [3H]PonA from recombinant Nezara viridula EcR11. It is filed as protein-complex assay. For orientation: In a radioligand displacement assay an active substance lowers the binding of a labelled ligand.

The target of assay [2] is T2, Ecdysone receptor (Drosophila melanogaster, UniProt P20153+P34021).
T2 sequence (P34021 whole entry): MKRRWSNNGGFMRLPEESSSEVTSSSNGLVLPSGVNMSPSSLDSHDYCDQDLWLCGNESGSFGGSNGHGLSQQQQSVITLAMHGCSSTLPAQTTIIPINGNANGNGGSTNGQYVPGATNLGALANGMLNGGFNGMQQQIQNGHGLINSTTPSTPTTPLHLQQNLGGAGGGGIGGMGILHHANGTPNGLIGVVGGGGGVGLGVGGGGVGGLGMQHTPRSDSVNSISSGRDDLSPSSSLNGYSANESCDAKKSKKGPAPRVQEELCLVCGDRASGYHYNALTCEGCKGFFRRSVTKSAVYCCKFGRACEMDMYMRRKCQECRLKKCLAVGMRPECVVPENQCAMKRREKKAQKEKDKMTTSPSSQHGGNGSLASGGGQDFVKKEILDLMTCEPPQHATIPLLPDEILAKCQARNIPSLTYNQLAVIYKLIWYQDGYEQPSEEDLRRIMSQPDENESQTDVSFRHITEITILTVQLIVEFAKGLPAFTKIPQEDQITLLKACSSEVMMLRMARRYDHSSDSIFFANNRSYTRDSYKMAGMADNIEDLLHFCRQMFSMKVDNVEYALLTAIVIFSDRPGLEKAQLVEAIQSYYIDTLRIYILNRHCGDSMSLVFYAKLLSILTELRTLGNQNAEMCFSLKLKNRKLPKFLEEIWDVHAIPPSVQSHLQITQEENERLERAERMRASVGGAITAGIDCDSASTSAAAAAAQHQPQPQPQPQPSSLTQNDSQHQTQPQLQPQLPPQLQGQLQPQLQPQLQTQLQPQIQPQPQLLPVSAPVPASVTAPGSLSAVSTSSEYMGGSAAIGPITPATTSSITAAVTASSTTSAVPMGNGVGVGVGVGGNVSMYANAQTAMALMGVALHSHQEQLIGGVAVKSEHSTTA
T2 sequence (P20153 whole entry): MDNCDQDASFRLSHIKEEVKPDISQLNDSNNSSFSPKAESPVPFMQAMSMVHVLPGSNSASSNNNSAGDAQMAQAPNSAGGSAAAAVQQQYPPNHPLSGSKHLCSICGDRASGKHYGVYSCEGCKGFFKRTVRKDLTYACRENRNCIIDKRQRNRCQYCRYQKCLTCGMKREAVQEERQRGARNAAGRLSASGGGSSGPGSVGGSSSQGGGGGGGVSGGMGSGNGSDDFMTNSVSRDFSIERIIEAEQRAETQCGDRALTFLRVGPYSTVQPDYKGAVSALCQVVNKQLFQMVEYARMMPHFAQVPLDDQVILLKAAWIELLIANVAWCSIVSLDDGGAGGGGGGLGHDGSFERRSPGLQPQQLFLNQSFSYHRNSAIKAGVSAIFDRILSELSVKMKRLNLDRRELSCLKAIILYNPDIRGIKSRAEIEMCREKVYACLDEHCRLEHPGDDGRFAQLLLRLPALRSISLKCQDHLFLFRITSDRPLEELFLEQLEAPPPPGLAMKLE
Nature of the assay: Binding affinity to Drosophila melanogaster EcR. Format: protein-complex assay.

By IC50 is commonly meant the concentration that gives 50% inhibition. A word on the Ki: it is a measure of affinity in units of concentration, obtained from inhibition or displacement. Regarding `CC(C)(O)CC[C@@H](O)[C@](C)(O)[C@H]1CC[C@@]2(O)C3=CC(=O)[C@@H]4C[C@@H](O)[C@@H](O)C[C@]4(C)[C@H]3CC[C@]12C` [20-HYDROXYECDYSONE], on Ecdysone receptor [1], the concentration for half-maximal inhibition (IC50) stood at 4.5 µM and the Ki was 3 µM. This molecule showed an IC50 at Ecdysone receptor [2] of 0.0457 µM.
As to `CCc1ccc(C(=O)NN(C(=O)c2cc(C)cc(C)c2)C(C)(C)C)cc1` [TEBUFENOZIDE], at Ecdysone receptor [1], the IC50 is 28 µM and the inhibitory constant (Ki) came to 23.9 µM. The same molecule showed an inhibition constant (Ki) at Ecdysone receptor [2] of 0.251 µM.
